Laboratory results reported in ChEMBL document CHEMBL2040840, “New quinoline-5,8-dione and hydroxynaphthoquinone derivatives inhibit a chloroquine resistant Plasmodium falciparum strain” (Eur J Med Chem, 2012).
pIC50: −log10 of the molar value. The source made the active and inactive calls. The rule behind the calls is not given here.

How the values were obtained:
Plasmodium falciparum [1] = assay: Antiplasmodial activity against Plasmodium falciparum NF54 infected in human erythrocytes assessed as decrease in parasitemia measured on day 3 post-treatment by geimsa staining (reference value: 2.18 +/- 0.17%); format: functional; design: scale not given: the % may be the effect or the level left
Plasmodium falciparum [2] = assay: Antiplasmodial activity against Plasmodium falciparum NF54 infected in human erythrocytes after 72 hrs by geimsa staining; format: functional, organism-based; settings: for pIC50: NF54, 72 h
Plasmodium falciparum [3] = assay: Antiplasmodial activity against Plasmodium falciparum NF54 infected in human erythrocytes assessed as decrease in parasitemia measured on day 1 post-treatment by geimsa staining (reference value: 0.65 +/- 02%); format: functional; design: scale not given: the % may be the effect or the level left
Plasmodium falciparum [4] = assay: Antiplasmodial activity against Plasmodium falciparum NF54 infected in human erythrocytes assessed as decrease in parasitemia measured on day 2 post-treatment by geimsa staining (reference value: 1.1 +/- 0.09%); format: functional; design: scale not given: the % may be the effect or the level left
Plasmodium falciparum [5] = assay: Antiplasmodial activity against Plasmodium falciparum NF54 infected in human erythrocytes assessed as decrease in parasitemia measured on day 4 post-treatment by geimsa staining (reference value: 3.28 +/- 0.11%); format: functional; design: scale not given: the % may be the effect or the level left

pIC50 (Plasmodium falciparum [2]) | SMILES | Activity (Plasmodium falciparum [1]) | Activity (Plasmodium falciparum [3]) | Activity (Plasmodium falciparum [4]) | Activity (Plasmodium falciparum [5]) | Activity (Plasmodium falciparum [2])
5.36 | CCCc1ccc(-c2ccc(NC3=C(Br)C(=O)c4nc(C)ccc4C3=O)cc2)cc1 | 0.05% | 0.42% | 0.19% | 0% | 
5.41 | Cc1ccc2c(n1)C(=O)C(Br)=C(NN1CCN(NC3=C(Br)C(=O)c4nc(C)ccc4C3=O)CC1)C2=O | 0.05% | 0.65% | 0.49% | 0% | 
5.12 | Cc1ccc2c(Br)cc(Br)c(O)c2n1 [BROQUINALDOL] |  |  |  |  | 
5.52 | CCCc1ccc(-c2ccc(NC3=C(Br)C(=O)c4ncccc4C3=O)cc2)cc1 |  |  |  |  | 

More lines, now with the values behind:

SMILES | pIC50 (Plasmodium falciparum [2]) | Activity (Plasmodium falciparum [1]) | Activity (Plasmodium falciparum [3]) | Activity (Plasmodium falciparum [4]) | Activity (Plasmodium falciparum [5]) | Activity (Plasmodium falciparum [2])
O=C1C(O)=C(N2CCN(c3ccccc3)CC2)C(=O)c2ccccc21 | 5.41 | 0.03% | 0.5% | 0.26% | 0% | 
CCN(CC)CCCC(C)Nc1ccnc2cc(Cl)ccc12 (configuration not stated) [CHLOROQUINE] |  | 0% | 0.06% | 0% | 0% | 
Cc1ccc2c(n1)C(=O)C(Br)=C(NN1CCN(N)CC1)C2=O | 5.39 | 0.07% | 0.48% | 0.28% | 0% | 
Cc1ccc2c(n1)C(=O)C(Br)=C(N1CCN(c3ccccc3)CC1)C2=O | 5.66 | 0% | 0.46% | 0.29% | 0% | 
Cc1ccc2c(n1)C(=O)C=C(N1CCN(c3ccccc3)CC1)C2=O | 5.40 | 0.04% | 0.43% | 0.25% | 0% | 
Oc1c(Br)cc(Br)c2cccnc12 |  |  |  |  |  | inactive
